Measurements from US7115639B2, “Pyrrolidine oxadiazole- and thiadiazole oxime derivatives being oxytocin receptor antagonists” (Applied Research Systems ARS Holding N.V., priority 2001, dated 2006).

What was measured:
[1] = test system: oxytocin-induced uterine contractions in the rat; test: In vivo model for inhibition of uterine contractions; settings: subcutaneous, NP3S, 5 ml/kg, 10 mg/kg
[2] = test system: oxytocin-induced uterine contractions in the rat; test: as above; settings: subcutaneous, NP3S, 5 ml/kg
Procedure: d) In Vivo Model for Inhibition of Uterine Contractions
The assay intends to show the biological effect of tested compounds in an in vivo model of preterm labor, premature birth.
Non-pregnant Charles River CD(SD) BR female rats (9–10 weeks old, 200–250 g) were treated at 18 and 24 hours before the experiment with 250 μg/kg, i.p. diethylstilbestrol (DES). For the assay, the animal was anaesthetised by urethane (1.75 g/kg, i.p.) and placed on an homeothermic operating table. The trachea was isolated and cannulated with a suitable polyethylene (PE) tubing. A midline incision at the hypogastrium level was made and one uterine horn exposed, its cephalic end cannulated with a PE240 tubing and, after filling the internal cavity with 0.2 ml of sterile physiological saline, connected to a “Gemini” amplifying/recording system via a P231D Gould Statham pressure transducer, in, order to measure said pressure. For the i.v. route of administration of the test compounds, one jugular vein was isolated and cannulated with a PE60 tubing connected to a butterfly needle to allow the administration by a dispensing syringe. In the case of intraduodenal administration of the test compounds, the duodenum was isolated and similarly cannulated through a small incision in its wall. One carotid artery was also isolated and cannulated with PE60 catheter and connected to a suitable syringe for blood sample collection (see below). After a stabilization period, the same dose of oxytocin was repeatedly injected intravenously at 30-min intervals. […] Further injections of the same dose of oxytocin were then made for a suitable time after treatment to assess inhibitory effects of the compounds under study. The contractile response of the uterus to oxytocin was quantified by measuring the intrauterine pressure and the number of contractions.
A total of six animals is forming one group which is treated with a given test compound at a given concentration (see above).
The effect of the test compounds were evaluated by comparing pre- and post-treatment pressure values. In addition, at 2, 30, 90 and 210 minutes after test compound administration, a 0.5-ml blood sample was withdrawn from the cannulated carotid artery of each experimental animal. Plasma was obtained by standard laboratory procedure and the resulting samples were stored at −20° C.
The activities of the pyrrolidine derivatives claimed in the formula I were assessed using the above described in vivo biological assay. The values refer to the capacity of the example compound according to formula I to effectively antagonize oxytocin-induced uterine contractions in the rat.

melting point: 141 °C
Compound: CO/N=C1/C[C@@H](c2nc(CCO)no2)N(C(=O)c2ccc(-c3ccccc3)cc2)C1 [(3Z,5S)-1-([1,1′-biphenyl]-4-ylcarbonyl)-5-[3-(2-hydroxyethyl)-1,2,4-oxadiazol-5-yl]-3-pyrrolidinone O-methyloxime]
% Reduction of Uterine Contraction [1]: −39.7 ± 7.2%
% Reduction of Uterine Contraction ([2]; 1 mg/kg): −13.2 ± 5.6%
% Reduction of Uterine Contraction ([2]; 3 mg/kg): −30.2 ± 1.1%
% Reduction of Uterine Contraction ([2]; 30 mg/kg): −57.5 ± 8.6%
